Patent publication US20050050594A1, “Tryptophan synthase as a site of herbicide action” (priority 1999, published 2005)
Read-outs that look alike come from different tables or passages of the source. Marks after values point to notes of the source that are not given here.

What was measured:
[1] = target: TSα subunit; conditions: TSα subunit reaction; cited from earlier work
[2] = test system: a variety of dicotyledonous and monocotyledonous plants; test: Postemergence greenhouse herbicidal test; type: in vivo; conditions: post emergence greenhouse test, 4 kg/ha
Description: The herbicidal activity of the compounds was tested as described in the U.S. Pat. No. 5,635,449. […] In the tests, seedling plants are grown in jiffy flats for about two weeks. The test compounds are dispersed in 50/50 acetone/water mixtures containing 0.5% TWEEN®20, a polyoxyethylene sorbitan monolaurate surfactant of Atlas Chemical Industries, in sufficient quantities to provide the equivalent of about 1.0 kg to 8.0 kg per hectare of test compound when applied to the plants through a spray nozzle operating at 40 psi for a predetermined time. After spraying, the plants are placed on greenhouse benches and are cared for in the usual manner, commensurate with conventional greenhouse practices. From four to five weeks after treatment, the seedling plants are examined and rate according to the rating system set forth below.

[3] = target: T1, Salmonella typhimurium tryptophan synthase holoenzyme (α2β2), TSα reaction (Salmonella typhimurium, UniProt P00929); test: Inhibition of tryptophan synthase by the TSα reaction, microtiter kinetic coupled enzyme assay; type: biochemical
T1 construct: made in house; host or cells: E. coli strain CB149pSTB7
Description: Inhibitors of TS were identified by their ability to inhibit the production of glyceraldehyde-3-P by the TSα reaction of the Salmonella typhimurium holoenzyme (α2β2) in the presence of a limiting amount of indole-3-glycerolphosphate and an excess of serine
The assay was developed as a new microtiter plate kinetic enzyme assay based on the combined methods of Creighton (EurJBch 13:1-10, 1970) and Creighton and Yanofsky (JBC 241:980, 1966) with modifications. The rate of glyceraldehyde production was measured as the linear […] (spectrophotometric absorbance at 340 nm) in the presence of glyceraldehyde-3-phosphate dehydrogenase in a coupled enzyme assay.
The assay solution contained a test inhibitor compound, 50 mM Tris-Cl (pH 7.8), 6 mM sodium arsenate, 5 μg/ml pyridoxal phosphate, 0.5 mM DTT, 0.18M NaCl, 60 mM serine, 1.6 mM NAD+, 8 e.u./ml yeast glyceraldehyde-3-phosphate dehydrogenase (Sigma, Catalog #G2647; Kirschner et al., Eur J Bch, 1975, 60:513 and approximately 1.5 e.u. Salmonella TS. 100 μM IGP was added to start the reaction, which was run at 37° C. and using 300 μl per assay in a microtiter plate.
The substrate IGP was used at 1.5 to 2 times its Km concentration to enhance the likelihood of identifying weak inhibitors, binding at the substrate binding site. This approach to identifying enzyme inhibitors was novel, since an excess of all substrates, (at least 5-times the Km value of each), is conventionally used in the measurement of enzyme activity.
Potential inhibitors were evaluated by adding 100 μM inhibitor (equimolar to substrate IGP):or less, in a 1:1 dilution series down from 100 μM, until the inhibition measured was less than 15%. Reaction rates at Vmax were compared in the presence and absence of inhibitors.
In addition, some weaker inhibitors were identified following preincubation of the inhibitor with the TS assay mix for 24 hrs prior to the addition of IGP. The identifying weaker inhibitors is to aid in a quantitative structure activity relationship (QSAR) evaluation, or to identify new herbicidal inhibitor leads. The previously known inhibitor IPP was used as a standard in all tests, where the I50 for IPP was 1-2 uM.

[4] = target: T2, Arabidopsis TS enzyme (Arabidopsis thaliana, UniProt Q42529); test: TSα assay with recombinant plant TSα and TSβ expressed in E. coli; type: biochemical; conditions: inhibitor 82 uM; pAC 758 (1.5 ug) + pAC 755 (3 ug)
T2 construct: GST (N, cleaved yes); made in house; host or cells: E. coli DH5α (pGEX-2T constructs)
T2 sequence (Q42529 with tags, fused parts or gaps): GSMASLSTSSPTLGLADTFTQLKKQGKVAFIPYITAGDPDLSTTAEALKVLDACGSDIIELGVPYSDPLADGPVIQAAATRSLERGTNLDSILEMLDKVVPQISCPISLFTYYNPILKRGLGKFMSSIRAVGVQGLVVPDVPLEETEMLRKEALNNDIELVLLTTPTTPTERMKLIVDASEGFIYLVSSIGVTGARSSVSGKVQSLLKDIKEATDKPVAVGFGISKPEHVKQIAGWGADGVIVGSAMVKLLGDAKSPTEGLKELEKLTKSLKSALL
T2 sequence (P14671 with tags, fused parts or gaps partner): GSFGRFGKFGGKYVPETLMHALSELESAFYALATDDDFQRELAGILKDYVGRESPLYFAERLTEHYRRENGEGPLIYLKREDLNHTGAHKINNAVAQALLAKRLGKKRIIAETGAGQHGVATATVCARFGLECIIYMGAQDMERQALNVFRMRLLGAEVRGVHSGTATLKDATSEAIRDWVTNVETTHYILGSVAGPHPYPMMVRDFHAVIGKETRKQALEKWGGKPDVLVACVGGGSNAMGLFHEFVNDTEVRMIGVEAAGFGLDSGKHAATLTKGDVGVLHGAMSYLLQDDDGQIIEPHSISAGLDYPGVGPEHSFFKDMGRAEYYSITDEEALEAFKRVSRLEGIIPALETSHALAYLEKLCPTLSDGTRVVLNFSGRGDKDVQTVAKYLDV
Description: The plant TS proteins were expressed as fusion proteins with glutathione transferase (GST) to facilitate purification. After purification, the GST protein was cleaved off with thrombin as described above before the plant TS assays were performed. After thrombin cleavage, both TSα and TSβ-subunit proteins retained a Gly-Ser residue on the N-terminal of the protein in addition to the TS sequence. […]
The TSα enzyme assay was conducted as described in Example 3 for Salmonella TSα.
Specifically, phenylthiophosphonic acid compounds were used. The TSα assay conditions were as described for Salmonella TSα in Example 3 except that recombinant plant proteins were used instead of the Salmonella enzyme.

[5] = test system: TSβ (Spinacea enzyme); test: TSβ assay with partially purified spinach enzyme; type: biochemical, Spinacea oleracea; parameters: key: the increase in the number of “+” corresponds to the increase of inhibition; +++++: the increase in the number of “+” corresponds to the increase of inhibition; +++++++: the increase in the number of “+” corresponds to the increase of inhibition; conditions: determined qualitatively
Description: The assay was conducted in microfuge tubes by the TSβ reaction (indole+L-serine→L-tryptophan+H2O). 100 μL of extract was mixed with 150 μL of 0.4 mM indole, 80 mM serine, 0.03 mM PLP, 0.1 M Tris-Cl buffer pH 7.8, containing 7.5 μL of saturated NaCl. The mixture was incubated at 21° C. for increasing time intervals, from 10 min to several hours. The reaction was terminated by adding 25 μL 1 N NaOH, then 1 mL toluene with mixing, and then centifuging in a microfuge 2 min at 10,000×G to partition remaining indole into the toluene phase and away from the enzyme. Remaining indole was subsequently partitioned into the indole reagent phase and reacted with dimethylaminobenzaldehyde: 500 μL of the toluene layer from the microfuge tubes was mixed with 1 ml of the indole reagent in another tube and allowed to separate for 20 min, then the lower layer was carefully pipetted into a cuvette and its absorbance measured at 540 nm. This part of the assay was conducted as known in the art.
A unique microtiter plate method was also developed to streamline the partitioning steps and data collection. First, the TSβ reaction was performed as above in microfuge tubes. […] The plate was covered by a mylar sheet (to protect the plate reader and avoid evaporation) and absorbance was monitored on the plate reader at 535 nm. […]
TS was partially purified from spinach for use in the TSβ assay. The greatest degree of purification was achieved by homogenizing the tissue, preparing the 30-50% ammonium sulfate fraction and freezing it, thawing it, and applying the dissolved precipitate to an FPLC column (Waters SW300, Waters Corporation, Franklin, Mass.) to separate the TS activity (measured as TSβ) from the bulk of the protein. […] Because of the low yield of the assay of partially purified plant TS, endogenous enzyme was measured in crude extracts or in enzyme preparations involving one or two purification steps. […]

T1 sequence (P00929 whole entry): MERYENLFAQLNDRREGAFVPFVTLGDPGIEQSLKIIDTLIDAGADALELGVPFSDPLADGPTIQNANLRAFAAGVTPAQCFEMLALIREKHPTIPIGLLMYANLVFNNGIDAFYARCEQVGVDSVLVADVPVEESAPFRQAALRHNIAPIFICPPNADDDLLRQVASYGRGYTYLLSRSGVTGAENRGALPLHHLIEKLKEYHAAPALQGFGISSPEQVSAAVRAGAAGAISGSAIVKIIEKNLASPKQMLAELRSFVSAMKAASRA
T1 sequence (P0A2K1 2-397, further chain): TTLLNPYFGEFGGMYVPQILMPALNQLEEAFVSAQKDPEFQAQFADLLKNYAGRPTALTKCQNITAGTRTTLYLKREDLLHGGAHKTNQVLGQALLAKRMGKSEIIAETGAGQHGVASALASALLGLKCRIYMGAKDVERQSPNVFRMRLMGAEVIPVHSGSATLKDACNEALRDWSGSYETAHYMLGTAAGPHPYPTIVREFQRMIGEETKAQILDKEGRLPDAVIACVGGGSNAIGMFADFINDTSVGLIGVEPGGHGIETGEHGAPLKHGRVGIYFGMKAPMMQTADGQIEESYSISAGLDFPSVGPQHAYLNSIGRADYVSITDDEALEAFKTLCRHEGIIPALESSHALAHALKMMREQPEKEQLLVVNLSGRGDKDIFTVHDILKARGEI

Molecule	Ki [1] [nM]	Herbicidal Activity [2]	IC50 ([3]; I50 TS, TSα reaction of the highly purified Salmonella typhimiurium holoenzyme) [nM]	IC50 ([3]; I50 for IPP used as a standard in all tests, TSα reaction, 100 μM IGP) [nM]	IC50 ([3]; TS inhibition I50, TSα reaction, Salmonella holoenzyme, 30 min at 37° C., 100 μM IGP) [nM]	TSα activity, % of control [4]	TSα activity, relative Vmax [4] [mOD/min]	IC50 ([3]; TSα activity (Salmonella enzyme) I50) [nM]	TSβ (Spinacea enzyme), relative activity [5]	IC50 ([3]; TSα reaction, Salmonella holoenzyme, 30 min at 37° C., 100 μM IGP, read-out: TS inhibition I50) [nM]	IC50 ([3]; read-out: TSα activity (Salmonella enzyme) I50) [nM]
O=P(O)(O)OCCCc1c[nH]c2ccccc12 [Compound 1, indole-3-propanol phosphate, reference compound]	15000	inactive	5000	1000 to 2000	2000	35.9 % of control	2.223	–	–	–	–
Cc1ccc(SCCCCP(=O)(O)O)c(N)c1 [Phosphonic acid,-{4-[(2-amino-p-tolyl)thio]butyl}-]	–	–	–	–	–	–	–	1000	+++++++*	–	–
Phosphonic acid, {4-[(o-aminophenyl)thio]butyl}-, compound with cyclohexylamine (1:2)	–	–	–	–	–	–	–	–	+++++	400	550
